What was measured:
[1] = target: T1, Sodium channel alpha subunits; brain (Types I, II, III) (Homo sapiens, UniProt P35498+Q99250+Q9NY46); conditions: Cavia porcellus; Cerebral cortex; at 10 µM
[2] = target: T1, Sodium channel alpha subunits; brain (Types I, II, III); assay: Inhibition of binding of Batrachotoxinin [3H]BTX-B to high affinity sites on voltage dependent sodium channels in a vesicular preparation from guinea pig cerebral cortex; format: tissue-based, Cavia porcellus

T1 sequence (Q99250 whole entry, looked up, other chains not shown): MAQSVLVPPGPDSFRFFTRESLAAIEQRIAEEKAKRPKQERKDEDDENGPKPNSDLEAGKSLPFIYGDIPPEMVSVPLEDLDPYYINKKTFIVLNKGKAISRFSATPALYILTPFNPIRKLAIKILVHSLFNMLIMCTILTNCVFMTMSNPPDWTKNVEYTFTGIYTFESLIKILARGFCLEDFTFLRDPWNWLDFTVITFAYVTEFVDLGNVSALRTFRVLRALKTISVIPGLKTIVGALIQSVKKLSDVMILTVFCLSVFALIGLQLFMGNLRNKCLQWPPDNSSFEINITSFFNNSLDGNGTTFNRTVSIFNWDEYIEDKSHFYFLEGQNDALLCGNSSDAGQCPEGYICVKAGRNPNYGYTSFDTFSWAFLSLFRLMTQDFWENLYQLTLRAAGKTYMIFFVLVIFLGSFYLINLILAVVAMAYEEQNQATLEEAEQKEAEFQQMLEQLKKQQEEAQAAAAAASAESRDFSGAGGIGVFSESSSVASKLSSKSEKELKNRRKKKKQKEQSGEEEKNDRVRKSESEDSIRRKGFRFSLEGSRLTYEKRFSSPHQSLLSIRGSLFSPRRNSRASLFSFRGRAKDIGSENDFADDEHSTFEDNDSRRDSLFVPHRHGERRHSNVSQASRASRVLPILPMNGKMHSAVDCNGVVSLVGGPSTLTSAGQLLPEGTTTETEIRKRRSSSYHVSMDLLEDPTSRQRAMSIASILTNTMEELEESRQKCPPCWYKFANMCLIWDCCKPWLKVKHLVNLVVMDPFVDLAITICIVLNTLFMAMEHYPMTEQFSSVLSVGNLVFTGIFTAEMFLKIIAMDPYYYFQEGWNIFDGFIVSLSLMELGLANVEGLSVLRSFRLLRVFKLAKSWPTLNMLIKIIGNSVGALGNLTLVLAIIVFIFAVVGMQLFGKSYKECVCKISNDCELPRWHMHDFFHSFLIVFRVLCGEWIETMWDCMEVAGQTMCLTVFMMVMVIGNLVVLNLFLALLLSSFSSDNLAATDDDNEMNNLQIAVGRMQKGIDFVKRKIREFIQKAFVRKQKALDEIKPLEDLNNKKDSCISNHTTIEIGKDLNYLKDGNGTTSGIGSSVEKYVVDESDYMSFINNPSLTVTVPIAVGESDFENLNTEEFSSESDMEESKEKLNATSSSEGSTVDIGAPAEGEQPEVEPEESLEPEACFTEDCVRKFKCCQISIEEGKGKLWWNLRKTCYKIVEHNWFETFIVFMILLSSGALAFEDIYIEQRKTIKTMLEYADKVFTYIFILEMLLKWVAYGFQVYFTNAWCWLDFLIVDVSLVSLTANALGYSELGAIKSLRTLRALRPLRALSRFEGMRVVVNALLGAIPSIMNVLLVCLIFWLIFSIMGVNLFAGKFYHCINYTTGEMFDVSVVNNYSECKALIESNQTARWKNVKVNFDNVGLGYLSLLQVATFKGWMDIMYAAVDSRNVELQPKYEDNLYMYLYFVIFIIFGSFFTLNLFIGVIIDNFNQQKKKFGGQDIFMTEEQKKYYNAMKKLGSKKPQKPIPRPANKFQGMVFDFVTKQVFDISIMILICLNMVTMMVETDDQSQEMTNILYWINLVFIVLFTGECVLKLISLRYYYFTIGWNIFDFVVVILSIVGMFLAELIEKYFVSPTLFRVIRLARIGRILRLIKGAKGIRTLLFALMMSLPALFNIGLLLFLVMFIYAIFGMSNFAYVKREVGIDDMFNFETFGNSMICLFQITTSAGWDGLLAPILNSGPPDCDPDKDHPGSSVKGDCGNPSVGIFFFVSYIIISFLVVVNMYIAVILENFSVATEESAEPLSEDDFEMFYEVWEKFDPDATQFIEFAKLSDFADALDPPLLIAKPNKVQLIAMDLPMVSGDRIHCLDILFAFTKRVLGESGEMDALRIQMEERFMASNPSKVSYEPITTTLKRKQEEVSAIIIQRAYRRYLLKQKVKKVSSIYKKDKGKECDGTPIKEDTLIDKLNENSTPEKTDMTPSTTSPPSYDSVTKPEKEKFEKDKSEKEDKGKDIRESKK
T1 sequence (Q9NY46 whole entry, looked up, other chains not shown): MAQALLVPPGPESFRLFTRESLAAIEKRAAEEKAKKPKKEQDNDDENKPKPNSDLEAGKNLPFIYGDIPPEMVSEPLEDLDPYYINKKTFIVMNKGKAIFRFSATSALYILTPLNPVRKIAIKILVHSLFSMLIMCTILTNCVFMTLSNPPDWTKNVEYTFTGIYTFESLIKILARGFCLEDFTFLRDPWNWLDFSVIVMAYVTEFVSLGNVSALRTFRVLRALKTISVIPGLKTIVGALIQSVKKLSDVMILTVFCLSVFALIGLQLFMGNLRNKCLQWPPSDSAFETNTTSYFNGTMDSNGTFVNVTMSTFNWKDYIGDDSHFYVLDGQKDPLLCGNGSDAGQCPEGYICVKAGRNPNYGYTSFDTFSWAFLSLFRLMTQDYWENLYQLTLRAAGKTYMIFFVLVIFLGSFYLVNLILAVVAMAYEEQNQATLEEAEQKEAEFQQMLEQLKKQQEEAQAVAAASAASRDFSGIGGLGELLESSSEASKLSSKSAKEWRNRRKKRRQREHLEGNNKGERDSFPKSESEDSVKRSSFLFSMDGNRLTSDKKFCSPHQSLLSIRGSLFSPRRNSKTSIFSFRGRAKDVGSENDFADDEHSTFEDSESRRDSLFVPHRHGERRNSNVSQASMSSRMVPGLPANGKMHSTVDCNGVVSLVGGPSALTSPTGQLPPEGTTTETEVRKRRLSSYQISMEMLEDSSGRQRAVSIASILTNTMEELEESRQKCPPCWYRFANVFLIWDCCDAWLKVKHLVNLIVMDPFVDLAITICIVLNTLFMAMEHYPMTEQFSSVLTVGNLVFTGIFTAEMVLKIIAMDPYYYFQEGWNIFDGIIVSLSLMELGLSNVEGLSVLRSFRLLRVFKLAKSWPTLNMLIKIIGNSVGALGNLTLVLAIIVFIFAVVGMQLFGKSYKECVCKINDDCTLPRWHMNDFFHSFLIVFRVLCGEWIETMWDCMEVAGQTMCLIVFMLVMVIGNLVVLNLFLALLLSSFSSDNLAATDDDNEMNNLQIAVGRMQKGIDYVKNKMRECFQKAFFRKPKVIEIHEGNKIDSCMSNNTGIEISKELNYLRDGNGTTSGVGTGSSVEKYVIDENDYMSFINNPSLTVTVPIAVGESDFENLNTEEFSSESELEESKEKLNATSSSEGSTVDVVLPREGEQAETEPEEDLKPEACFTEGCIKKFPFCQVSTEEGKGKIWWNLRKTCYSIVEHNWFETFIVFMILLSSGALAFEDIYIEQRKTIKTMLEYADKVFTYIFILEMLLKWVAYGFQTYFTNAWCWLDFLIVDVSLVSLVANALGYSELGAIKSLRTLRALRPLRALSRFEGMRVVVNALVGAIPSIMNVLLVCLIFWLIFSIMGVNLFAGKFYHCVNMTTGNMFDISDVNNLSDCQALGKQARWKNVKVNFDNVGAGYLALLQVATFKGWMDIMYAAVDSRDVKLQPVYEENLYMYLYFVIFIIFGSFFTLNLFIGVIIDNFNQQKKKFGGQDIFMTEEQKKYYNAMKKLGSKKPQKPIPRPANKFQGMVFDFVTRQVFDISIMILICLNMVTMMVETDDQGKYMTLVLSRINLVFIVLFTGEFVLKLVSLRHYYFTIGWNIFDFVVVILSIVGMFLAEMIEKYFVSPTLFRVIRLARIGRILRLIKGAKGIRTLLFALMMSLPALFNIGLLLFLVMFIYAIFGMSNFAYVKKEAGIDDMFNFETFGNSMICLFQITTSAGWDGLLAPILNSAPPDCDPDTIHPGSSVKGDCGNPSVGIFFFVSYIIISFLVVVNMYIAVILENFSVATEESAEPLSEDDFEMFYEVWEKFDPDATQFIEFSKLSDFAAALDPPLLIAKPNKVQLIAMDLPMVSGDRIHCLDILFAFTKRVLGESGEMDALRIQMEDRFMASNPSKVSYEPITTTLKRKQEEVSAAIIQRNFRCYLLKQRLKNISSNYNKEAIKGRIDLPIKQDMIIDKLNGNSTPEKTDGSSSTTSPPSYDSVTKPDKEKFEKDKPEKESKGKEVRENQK

Row | SMILES | inhibition [1] [%] | IC50 [2] [µM]
1 | CCCCC1=C(N(C)C)c2cc3c(cc2C1)OCO3 | 45 | 12.5
2 | OC(c1ccccc1)(c1ccccc1)C1CCNCC1 [AZACYCLONOL] | 43.2 | 14
3 | CNCCCN1c2ccccc2CCc2ccccc21 [DESIPRAMINE] | 80.3 | 2.4
4 | CC[C@@H]1CN2CC[C@@H]1C[C@H]2[C@H](O)c1ccnc2ccc(OCCC(C)C)cc12 | 95.7 | 0.74
5 | CN(C)CCC=C1c2ccccc2CCc2ccccc21 [AMITRIPTYLINE] | 73.8 | < 10
6 | COC(=O)[C@@H]1[C@H]2C[C@H]3c4[nH]c5ccccc5c4CCN3C[C@@H]2CC[C@@H]1O [YOHIMBINE] | 25.6 | 33
7 | CC(C)Cn1c(=O)n(C)c(=O)c2nc[nH]c21 [ISOBUTYLMETHYLXANTHINE] | 0.9 | 1.8
8 | CNCCC=C1c2ccccc2CCc2ccccc21 [NORTRIPTYLINE] | 69.4 | < 10
9 | CN(C)CCC(c1ccccc1)c1ccccn1 (centres undefined) [PHENIRAMINE] | 24.9 | 33
10 | CC(C)COCC(CN(Cc1ccccc1)c1ccccc1)N1CCCC1 (centres undefined) [BEPRIDIL] | 96.2 | 0.84
11 | CSc1ccc2c(c1)N(CCC1CCCCN1C)c1ccccc1S2 (centres undefined) [THIORIDAZINE] | 63.5 | 6.5
12 | COC(=O)C1=C(C)NC(C)=C(C(=O)OCC(C)C)C1c1ccccc1[N+](=O)[O-] (centres undefined) [NISOLDIPINE] | 25.9 | 26
13 | COc1cc(C(=O)OCCCN2CCCN(CCCOC(=O)c3cc(OC)c(OC)c(OC)c3)CC2)cc(OC)c1OC [DILAZEP] | 99.3 | 0.6
14 | C[N+](C)(C)CCOC(c1ccccc1)c1ccccc1.[I-] | 69 | 64
15 | O=C1C[C@@H]2OCC=C3CN4CC[C@]56c7ccccc7N1[C@H]5[C@H]2[C@H]3C[C@H]46 [STRYCHNINE] | 35.7 | 21
16 | CC(C)NC[C@H](O)COc1cccc2ccccc12 [LEVOPROPRANOLOL] | 42.6 | 13
17 | OCCN1CCN(CCCN2c3ccccc3Sc3ccc(C(F)(F)F)cc32)CC1 [FLUPHENAZINE] | 72.8 | 3.7
18 | CC(CN1c2ccccc2Sc2ccccc21)N(C)C (centres undefined) [PROMETHAZINE] | 61 | 6.9
19 | Cc1ccc(N(CC2=NCCN2)c2cccc(O)c2)cc1 [PHENTOLAMINE] | 54.6 | 8.4
20 | CC(C)NC[C@@H](O)COc1cccc2ccccc12 [DEXPROPRANOLOL] | 50 | 10
21 | COc1cc(C(=O)OCCCN(C)CCN(C)CCCOC(=O)c2cc(OC)c(OC)c(OC)c2)cc(OC)c1OC [HEXOBENDINE] | 77.2 | 1.4
22 | COc1cc2nc(N3CCN(C(=O)c4ccco4)CC3)nc(N)c2cc1OC [PRAZOSIN] | 58.6 | 10.1
23 | CC1CCCCN1CCCOC(=O)c1ccccc1 (centres undefined) [PIPEROCAINE] | 43.6 | 13
24 | CN1CCN2c3ccccc3Cc3ccccc3C2C1 (centres undefined) [MIANSERIN] | 57.4 | 5.5

Row | SMILES | inhibition [1] [%] | IC50 [2] [µM]
25 | C=C(C)[C@@H]1[C@H]2OC(=O)[C@@H]1[C@]1(O)C[C@H]3OC34C(=O)O[C@H]2[C@@]41C.CC(C)(O)[C@@H]1[C@H]2OC(=O)[C@@H]1[C@]1(O)C[C@H]3OC34C(=O)O[C@H]2[C@@]41C (some centres undefined) [PICROTOXIN] | 22.7 | 700
26 | COc1cccc(OC)c1OCCNCC1=COc2ccccc2O1 | 67.7 | 2.4
27 | CCOc1ccc(/N=C(\C)Nc2ccc(OCC)cc2)cc1 [PHENACAINE] | 81.1 | 1.7
28 | CCCOc1cc(N)ccc1C(=O)OCCN(CC)CC [PROPOXYCAINE] | 30 | 24
29 | O=C(Nc1ccccc1)OCC(CN1CCCCC1)OC(=O)Nc1ccccc1 (centres undefined) [DIPERODON] | 87.8 | 1.3
30 | C[N+](C)(CC(=O)Nc1ccccc1)CC(=O)Nc1ccccc1.[Cl-] [CARCAINIUM CHLORIDE] | 71.6 | 3.9
31 | CCN(CC)CCOC(=O)C1(C2CCCCC2)CCCCC1 [DICYCLOMINE] | 75 | 28
32 | CN1CCC(=C2c3ccccc3C=Cc3ccccc32)CC1 [CYPROHEPTADINE] | 83 | 1
33 | CN(C)C(=O)C(CCN1CCC(O)(c2ccc(Cl)c(C(F)(F)F)c2)CC1)(c1ccccc1)c1ccccc1 [FLUPERAMIDE] | 100 | 0.28
34 | CCCC(C(=O)OCC[N+](C)(CC)CC)(c1ccccc1)c1ccccc1.[I-] | 72 | 4.2
35 | CN(C)CCCN1c2ccccc2Sc2ccccc21 [PROMAZINE] | 65.3 | 5.4
36 | COc1ccc(OC)c(C(O)C(C)NC(C)(C)C)c1 (centres undefined) [BUTOXAMINE] | 26.8 | 27
37 | CCCOc1ccc(C(=O)OCCN(CC)CC)cc1N [PROPARACAINE] | 79.9 | 1.9
38 | Cl.NCCCCCCNS(=O)(=O)c1cccc2ccccc12 | 33.3 | 22
39 | CN(C)CCC=C1c2ccccc2COc2ccccc21 [DOXEPIN] | 67.7 | < 10
40 | COc1ccc(CCN(C)CCCC(C#N)(c2cc(OC)c(OC)c(OC)c2)C(C)C)cc1OC (centres undefined) [GALLOPAMIL] | 67.1 | 3.6
41 | CN1CCN(CCCN2c3ccccc3Sc3ccc(C(F)(F)F)cc32)CC1 [TRIFLUOPERAZINE] | 79.8 | 5
42 | Cn1c(=O)c2c(ncn2C)n(C)c1=O [CAFFEINE] | 9.7 | 660
43 | CCOc1ccc(C(=O)OCCN(CC)CC)cc1 [PARETHOXYCAINE] | 33.2 | 24
44 | CCCC[N+]1(C)CCCCC1C(=O)Nc1c(C)cccc1C.[I-] (centres undefined) | 64.5 | 4.8
45 | CCCC(C(=O)OCCN(CC)CC)(c1ccccc1)c1ccccc1 [PROADIFEN] | 75.4 | 4.2
46 | CC[N+](CC)(CC)CC(=O)Nc1c(C)cccc1C.[Cl-] | 52.4 | 97
47 | CC(C)NCC(O)c1ccc(Cl)c(Cl)c1 (centres undefined) [DICHLOROISOPROTERENOL] | 53 | < 10
48 | OC(CCCN1CCCCC1)(c1ccccc1)c1ccccc1 [DIPHENIDOL] | 65.1 | 3.4

Row | SMILES | inhibition [1] [%] | IC50 [2] [µM]
49 | CC(C)(C)NCC(CO)O/N=C1\c2ccccc2C2C=CC=CC12 (centres undefined) | 72.5 | 3.7
50 | CCCCN(CCCC)CCCOC(=O)c1ccc(N)cc1 [BUTACAINE] | 75.3 | 2.7
51 | CC1CCCCN1CCCOC(=O)c1ccc(OC2CCCCC2)cc1 (centres undefined) [CYCLOMETHYCAINE] | 81.9 | 2
52 | CN(C)C(=O)C(CCN1CCC(O)(c2ccc(Cl)cc2)CC1)(c1ccccc1)c1ccccc1 [LOPERAMIDE] | 100 | 0.27
53 | CN(C)CCCN1c2ccccc2CCc2ccc(Cl)cc21 [CLOMIPRAMINE] | 76.6 | < 10
54 | CC(Cc1ccccc1)NCCC(c1ccccc1)c1ccccc1 (centres undefined) [PRENYLAMINE] | 98.8 | 0.3
55 | CN(C)CCCN1c2ccccc2CCc2ccccc21 [IMIPRAMINE] | 72.7 | 3.6
56 | CN1CC[C@@]23CCCC[C@@H]2[C@@H]1Cc1ccc(O)cc13 [DEXTRORPHAN] | 38.2 | 18
57 | CCN(CC)CCOC(=O)c1ccc(N)cc1 [PROCAINE] | 47.3 | 110
58 | CNCCCC1c2ccccc2C=Cc2ccccc21 [PROTRIPTYLINE] | 70.3 | < 10
59 | CC(CNC1CCCCC1)OC(=O)c1ccccc1 (centres undefined) [HEXYLCAINE] | 54.9 | 7
60 | CCCCOc1cc(C(=O)OCCN(CC)CC)ccc1N [BENOXINATE] | 73.4 | 2.9
61 | CN(C(=O)CN(CCO)CC(=O)N(C)C(C)(C)Cc1ccccc1)C(C)(C)Cc1ccccc1 [OXETHAZAINE] | 83.9 | 2.3
62 | Cc1ccc(OCC(O)C(C)NC(C)C)c2c1CCC2 (centres undefined) [ZENIDOLOL] | 64.2 | < 10
63 | C=C(c1ccc(Oc2cccc3ccccc23)cc1)C1COC2(CCCCC2)OO1.Cl (centres undefined) | 68.3 | 7
64 | OCCOCCN1CCN(C(c2ccccc2)c2ccc(Cl)cc2)CC1 (centres undefined) [HYDROXYZINE] | 73.9 | < 10
65 | CCCCc1cc2ccccc2c(OCCN(C)C)n1 [DIMETHISOQUIN] | 73.4 | 3.4
66 | CCOC(=O)C1=C(C)NC(C)=C(C(=O)OC)C1c1cccc(Cl)c1Cl (centres undefined) [FELODIPINE] | 20.1 | 37
67 | CN(C)CCC(c1ccc(Cl)cc1)c1ccccn1 (centres undefined) [CHLORPHENIRAMINE] | 49.7 | 10
68 | OC(CCN1CCCCC1)(c1ccccc1)C1CC2C=CC1C2 (centres undefined) [BIPERIDEN] | 62.9 | < 10
69 | COC(=O)[C@H]1[C@H]2C[C@@H]3c4[nH]c5cc(OC)ccc5c4CCN3C[C@H]2C[C@@H](OC(=O)c2cc(OC)c(OC)c(OC)c2)[C@@H]1OC [RESERPINE] | 100 | 1.6
70 | CCCNC(C)(C)COC(=O)c1ccccc1 [MEPRYLCAINE] | 57.6 | 7.6
71 | CCOC(=O)C1=C(C)NC(C)=C(C(=O)OC)C1c1cccc([N+](=O)[O-])c1 (centres undefined) [NITRENDIPINE] | 23.1 | 36
72 | CN1CC[C@]23CCCC[C@H]2[C@H]1Cc1ccc(O)cc13 [LEVORPHANOL] | 33 | 25

— ChEMBL document CHEMBL1122963, “[3H]Batrachotoxinin A 20 alpha-benzoate binding to voltage-sensitive sodium channels: a rapid and quantitative assay for local anesthetic activity in a variety of drugs” (J Med Chem, 1985)
